# In PubChem BioAssay (NCI):
#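 Step 1: Grow cells in 96-well plates. Step 2: Expose to compound for 48 hours at 5 concentrations. Step 3: Interpolate endpoints linearly; if unreached, use highest concentration. Abbreviation: GI50, concentration required for 50% inhibition of growth. TGI denotes the concentration required for complete inhibition of growth.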
# Key:
# Test in all cases: inhibition of tumour cell growth, NCI panel, 48 h
# SF-295 CNS = tested on: SF-295 CNS
# A549 NSCLC = tested on: A549 NSCLC
# COLO 205 colon = tested on: COLO 205 colon
# RXF 393 renal = tested on: RXF 393 renal
# HOP-92 NSCLC = tested on: HOP-92 NSCLC
# ACHN renal = tested on: ACHN renal
# OVCAR-4 ovarian = tested on: OVCAR-4 ovarian
# MDA-MB-231 breast = tested on: MDA-MB-231 breast
# UO-31 renal = tested on: UO-31 renal
# NCI-H522 lung = tested on: NCI-H522 lung
# CAKI-1 renal = tested on: CAKI-1 renal
# SF-268 CNS = tested on: SF-268 CNS
# MDA-MB-435 = tested on: MDA-MB-435
# U251 CNS = tested on: U251 CNS
# IGROV1 ovarian = tested on: IGROV1 ovarian
# SF-539 CNS = tested on: SF-539 CNS
# A498 renal = tested on: A498 renal
# KM12 colon = tested on: KM12 colon
# SK-MEL-2 melanoma = tested on: SK-MEL-2 melanoma
# RPMI-8226 leukemia = tested on: RPMI-8226 leukemia
# NCI-H23 lung = tested on: NCI-H23 lung
# SW-620 colon = tested on: SW-620 colon
# SK-MEL-28 melanoma = tested on: SK-MEL-28 melanoma
# T-47D breast = tested on: T-47D breast
# NCI/ADR-RES ovarian = tested on: NCI/ADR-RES ovarian
# HL-60(TB) leukemia = tested on: HL-60(TB) leukemia
# NCI-H460 lung = tested on: NCI-H460 lung
# HS 578T breast = tested on: HS 578T breast
# BT-549 breast = tested on: BT-549 breast
# SNB-75 CNS = tested on: SNB-75 CNS
# OVCAR-8 ovarian = tested on: OVCAR-8 ovarian
# EKVX NSCLC = tested on: EKVX NSCLC
# HCC-2998 colon = tested on: HCC-2998 colon
# HCT-15 colon = tested on: HCT-15 colon
# LOX IMVI melanoma = tested on: LOX IMVI melanoma
# HT29 colon = tested on: HT29 colon
# HOP-62 NSCLC = tested on: HOP-62 NSCLC
# MALME-3M melanoma = tested on: MALME-3M melanoma
# OVCAR-5 ovarian = tested on: OVCAR-5 ovarian
# MCF7 breast = tested on: MCF7 breast
# UACC-257 melanoma = tested on: UACC-257 melanoma
# SK-OV-3 ovarian = tested on: SK-OV-3 ovarian
# SNB-19 CNS = tested on: SNB-19 CNS
# OVCAR-3 ovarian = tested on: OVCAR-3 ovarian
# 786-0 renal = tested on: 786-0 renal
# TK-10 renal = tested on: TK-10 renal
# NCI-H226 lung = tested on: NCI-H226 lung
# UACC-62 melanoma = tested on: UACC-62 melanoma
# MOLT-4 leukemia = tested on: MOLT-4 leukemia
# SK-MEL-5 melanoma = tested on: SK-MEL-5 melanoma
# SN12C renal = tested on: SN12C renal
# CCRF-CEM leukemia = tested on: CCRF-CEM leukemia
# HCT-116 colon = tested on: HCT-116 colon
# PC-3 prostate = tested on: PC-3 prostate
# M14 melanoma = tested on: M14 melanoma
# DU-145 prostate = tested on: DU-145 prostate
smiles,measurement,setting,value
FC(F)(F)c1cc(Nc2cccc(Oc3ccc(NC4=NCCN4)nc3)c2)ccc1Cl,GI50,SF-295 CNS,1730 nM
same,TGI,SF-295 CNS,3.37 µM
same,GI50,A549 NSCLC,2350 nM
same,TGI,A549 NSCLC,6.31 µM
same,GI50,COLO 205 colon,1870 nM
same,TGI,COLO 205 colon,3.96 µM
same,GI50,RXF 393 renal,2050 nM
same,TGI,RXF 393 renal,4.94 µM
same,GI50,HOP-92 NSCLC,1420 nM
same,TGI,HOP-92 NSCLC,5.29 µM
same,GI50,ACHN renal,2910 nM
same,TGI,ACHN renal,8.66 µM
same,GI50,OVCAR-4 ovarian,2750 nM
same,TGI,OVCAR-4 ovarian,11 µM
same,GI50,MDA-MB-231 breast,2180 nM
same,TGI,MDA-MB-231 breast,5.02 µM
same,GI50,UO-31 renal,2190 nM
same,TGI,UO-31 renal,8.61 µM
same,GI50,NCI-H522 lung,1930 nM
same,TGI,NCI-H522 lung,4.36 µM
same,GI50,CAKI-1 renal,2760 nM
same,TGI,CAKI-1 renal,11.3 µM
same,GI50,SF-268 CNS,4.14 µM
same,TGI,SF-268 CNS,17.9 µM
same,GI50,MDA-MB-435,1660 nM
same,TGI,MDA-MB-435,3.3 µM
same,GI50,U251 CNS,2090 nM
same,TGI,U251 CNS,4.75 µM
same,GI50,IGROV1 ovarian,1830 nM
same,TGI,IGROV1 ovarian,4.22 µM
same,GI50,SF-539 CNS,2070 nM
same,TGI,SF-539 CNS,4.57 µM
same,GI50,A498 renal,2310 nM
same,TGI,A498 renal,9.85 µM
same,GI50,KM12 colon,2020 nM
same,TGI,KM12 colon,4.47 µM
same,GI50,SK-MEL-2 melanoma,2620 nM
same,TGI,SK-MEL-2 melanoma,6.99 µM
same,GI50,RPMI-8226 leukemia,2030 nM
same,TGI,RPMI-8226 leukemia,5.24 µM
same,GI50,NCI-H23 lung,2530 nM
same,TGI,NCI-H23 lung,7.6 µM
same,GI50,SW-620 colon,1760 nM
same,TGI,SW-620 colon,3.65 µM
same,GI50,SK-MEL-28 melanoma,1940 nM
same,TGI,SK-MEL-28 melanoma,3.89 µM
same,GI50,T-47D breast,2790 nM
same,TGI,T-47D breast,11.3 µM
same,GI50,NCI/ADR-RES ovarian,2050 nM
same,TGI,NCI/ADR-RES ovarian,4.52 µM
same,GI50,HL-60(TB) leukemia,2110 nM
same,TGI,HL-60(TB) leukemia,5.53 µM
same,GI50,NCI-H460 lung,1980 nM
same,TGI,NCI-H460 lung,3.95 µM
same,GI50,HS 578T breast,1980 nM
same,TGI,HS 578T breast,4.63 µM
same,GI50,BT-549 breast,3.91 µM
same,TGI,BT-549 breast,16.9 µM
same,GI50,SNB-75 CNS,1960 nM
same,TGI,SNB-75 CNS,8.29 µM
same,GI50,OVCAR-8 ovarian,2490 nM
same,TGI,OVCAR-8 ovarian,6.73 µM
same,GI50,EKVX NSCLC,2070 nM
same,TGI,EKVX NSCLC,5.45 µM
same,GI50,HCC-2998 colon,1980 nM
same,TGI,HCC-2998 colon,3.65 µM
same,GI50,HCT-15 colon,1660 nM
same,TGI,HCT-15 colon,3.32 µM
same,GI50,LOX IMVI melanoma,1740 nM
same,TGI,LOX IMVI melanoma,3.19 µM
same,GI50,HT29 colon,2050 nM
same,TGI,HT29 colon,5.07 µM
same,GI50,HOP-62 NSCLC,2220 nM
same,TGI,HOP-62 NSCLC,6.1 µM
same,GI50,MALME-3M melanoma,2810 nM
same,TGI,MALME-3M melanoma,9.7 µM
same,GI50,OVCAR-5 ovarian,2490 nM
same,TGI,OVCAR-5 ovarian,6.81 µM
same,GI50,MCF7 breast,1740 nM
same,TGI,MCF7 breast,3.69 µM
same,GI50,UACC-257 melanoma,3.09 µM
same,TGI,UACC-257 melanoma,9.59 µM
same,GI50,SK-OV-3 ovarian,14.8 µM
same,TGI,SK-OV-3 ovarian,32 µM
same,GI50,SNB-19 CNS,2740 nM
same,TGI,SNB-19 CNS,8.64 µM
same,GI50,OVCAR-3 ovarian,2500 nM
same,TGI,OVCAR-3 ovarian,6.33 µM
same,GI50,786-0 renal,1760 nM
same,TGI,786-0 renal,3.58 µM
same,GI50,TK-10 renal,3.97 µM
same,TGI,TK-10 renal,16.1 µM
same,GI50,NCI-H226 lung,2060 nM
same,TGI,NCI-H226 lung,5.34 µM
same,GI50,UACC-62 melanoma,2590 nM
same,TGI,UACC-62 melanoma,6.89 µM
same,GI50,MOLT-4 leukemia,3.2 µM
same,TGI,MOLT-4 leukemia,14.2 µM
same,GI50,SK-MEL-5 melanoma,1800 nM
same,TGI,SK-MEL-5 melanoma,3.24 µM
same,GI50,SN12C renal,1870 nM
same,TGI,SN12C renal,3.82 µM
same,GI50,CCRF-CEM leukemia,2800 nM
same,TGI,CCRF-CEM leukemia,14.6 µM
same,GI50,HCT-116 colon,1730 nM
same,TGI,HCT-116 colon,3.19 µM
same,GI50,PC-3 prostate,1920 nM
same,TGI,PC-3 prostate,3.73 µM
same,GI50,M14 melanoma,1730 nM
same,TGI,M14 melanoma,3.46 µM
same,GI50,DU-145 prostate,2090 nM
same,TGI,DU-145 prostate,4.44 µM
